Experimental findings from patent US9683254B2, “Compositions and methods for identifying enzyme and transport protein inhibitors” (San Diego State University (SDSU) Foundation, priority 2010, dated 2017) are described below.

For data set [1], the target named is T1, HIV-1 PR (Human immunodeficiency virus type 1 group M subtype B, UniProt P04585). The class given is cell-based. Further details: expressed in transfected cells; host or cells: SupT1 T-cell clone (lentiviral transduction; rtTA/mCherry, 5xUAS-eGFP reporter, inducible PR/Gal4). Particulars: for concentration resulting in eGFP activation: analyzed 50 hrs, range tested 1 nM to 20 μM. Here is the method:
Finally, cells were infected with virus encoding the reporter, rtTA and inducible wild-type PR/Gal4 (pH-TRE-PR/Gal4) to test the ability for this system in T-cells to indicate the levels of PR activity.
To determine the optimal time point for the analysis of eGFP expression in the presence of inhibitor, cells were activated with Dox and analyzed by flow cytometry 4, 8, 12, 16, 20, 25, 50, or 75 hours later. Six-well plates containing 250K cells per well in 3 mL media were treated either with DMSO alone as control, or 1 μg/mL Dox and 10 μM Indinavir.
(§1) The range chosen extended from 1 nM to 20 μM.
Flow Cytometry was performed on a BD FACSAria™ with 488 nm and 633 nm lasers. Data was collected on FACSDiva 6.1.1™ software and then exported to FlowJo™. eGFP expression was detected in the FITC channel and mCherry expression was detected on the PE-Texas-Red channel. Cells were first gated for size and granularity (FSC-A vs SSC-A) followed by doublet gating (FSC-A vs FSC-W and SSC-A vs. SSC-W). Sorted populations were gated on PE-TexasRed vs FITC plot. 250K cells were collected for each sample into 0.5 mL fetal calf serum (FCS) and 1 mL RPMI. Cells were then spun down at 1500 RPM and resuspended in fresh media in 6-well plates. Cells were allowed to grow for at least seven days to allow for expansion and loss of previously activated eGFP expression.
FIG. 21A (upper left) schematically illustrates exemplary constructs utilized to generate infectious particles for the transduction of SupT1 cells with the various assay elements. FIG. 21B (right) illustrates data from a cell sorting assay comprising: a previously generated stable SupT1 cell line expressing rtTA and mCherry was infected with the reporter virus (generated from pH-5×UAS-eGFP), or co-infected with the reporter virus plus a virus encoding an inducible assay element (generated from pH-TRE-Gal4, pH-TRE-PR/Gal4, or pH-TRE-PRm/Gal4). Cells were then activated with either 1 μg/mL of Dox alone, or were pre-incubated for 5 minutes with 10 μM Indinavir following activation with 1 μg/mL Dox. […] Finally, single SupT1 cells from the purified population were sorted into 96 well plates and grown as a monoclonal population and then tested for optimal responses to assay induction of eGFP under appropriate conditions. FIG. 21C (lower left) illustrates images of fluorescence microscopy of SupT1 clones expressing the assay elements. Cells expressing various elements of the assay were treated as indicated with DMSO, DMSO+1 μg/mL Dox, or […] Dox+10 μM Indinavir and analyzed 24 hours later by fluorescence microscopy for mCherry and eGFP expression. D. Quantification of eGFP expression of clonal SupT1 cells treated with DMSO, DMSO+1 μg/mL Dox, or 1 μg/mL Dox+10 μM Indinavir.
(§2) FIG. 22 graphically illustrates data determining the optimal conditions for activating the assay to screen for PR inhibition. FIG. 22A graphically illustrates a Doxycycline titration. Clonal SupT1 cells harboring an inducible Gal4, PR/Gal4 or PRm/Gal4 were pre-incubated in a 96 well plate with either DMSO or 10 μM Indinavir and then either left untreated, or activated with […] of Dox. Cells were analyzed by flow cytometry and gated to determine the number of cells positive for eGFP expression. FIG. 22B graphically illustrates a time course of eGFP Induction in response to Doxycyline activation in the presence of DMSO or a PI.

Data set [2] deals with tet-responsive element (TRE). The data set can be described thus: Doxycycline activation titration of clonal SupT1 cells (Tet-On, eGFP readout). The class given is cell-based. Here is the method:
In order to optimize the assay for maximal Gal4, PR/Gal4 or PRm/Gal4 induction, we analyzed the effect of increasing levels of Dox. Cells with 0, 50, 100, 250, 500, 750, 1,000, and 2,000 ng/mL Dox were either treated with 10 uM DMSO or 10 uM Indinavir and analyzed 32 hours later. TRE-Gal4 cells reached saturation with Doxycycline at about 1,000 ng/mL whether Indinavir was present or not. […] Again, as with transiently transfected 293 cells, TRE-PR/Gal4 cells had little to non-detectable eGFP expression at any given Dox concentration in the absence of 10 μM Indinavir.
as §2, with “PI. SupT1 clones harboring Gal4, PR/Gal4, or PRm/Gal4 were pre-incubated in a 96 well plate with either DMSO or 10 μM Indinavir and then activated with 1 μg/mL Dox. Cells were analyzed at either 4, 8, 12, 16, 20, 25, 50 or 75 hours by flow cytometry and gated for eGFP positive expression.” for “PI.”

Data set [3] addresses T1, HIV-1 PR. The class given is cell-based. Set-up: expressed in transfected cells; rtTA/mCherry, 5xUAS-eGFP reporter, inducible PR/Gal4. Particulars: HEK293T cells pre-treated with 10 uM inhibitor, co-transfected with reporter and pcDNA-PR/Gal4.
Experimental: It was of critical importance to verify the ability for the PR/Gal4 fusion to activate the reporter eGFP by the addition of PR inhibitors. For that purpose, 293T cells were pre-treated with 10 μM Indinavir and then co-transfected with reporter and pcDNA-PR/Gal4 vectors.
293T cells were transfected as follows. 15 μl of 2 mg/mL Polyethylenimine linear 25 kD (Polysciences, Inc.) were added to 125 μl of DMEM in a 1.8 ml Eppendorf tube. 3 g of each DNA was added drop-wise to each tube. Tubes were mixed and incubated for 20 min at RT. This mixture was then added drop-wise to 293T cells in a 10 cm plate at approximately 60-75% confluence. Cells were then analyzed by fluorescence microscopy and/or flow cytometry 24 hrs post transfection.
Top Panel: Fluorescence microscopy of eGFP expression in HEK293T cells 24 hours post transfection with the reporter vector (pFR), or co-transfection with the reporter vector plus either the Gal4, PR/Gal4, or PRm/Gal4 vectors. Bottom panel: HEK293T cells were analyzed by flow cytometry at 24 hours post transfection with the same conditions top panel. Gates were drawn to determine the ability to identify cells with an active PI. […] Quantification of eGFP expression in HEK293T transfected with various assay elements. The numbers of cells under various conditions were quantified for eGFP levels indicative of PR inhibition. Results shown are an average of 3 experiments.
The target of data set [4] is T1, HIV-1 PR. Type of data set: cell-based. Further details: expressed in transfected cells; host or cells: SupT1 T-cell clone (lentiviral transduction; rtTA/mCherry, 5xUAS-eGFP reporter, inducible PR/Gal4). Particulars: clonal SupT1, 96-well plates, pre-incubation with 1 μM PI, activation at 1 μg/mL Dox.
A further data set concerns SupT1 cells. Put plainly: Cell death in the reporter T-cell clones during PI concentration response. Particulars: for concentration resulting in significant cell death, with decline in number of eGFP positive cells: human, 50 h. Here is the method:
as §1
Cells were then analyzed 50 hrs later for eGFP expression as determined by flow cytometry on a BD FACSAria.

Setting [5] is: SupT1 PR/Gal4 clone, 1 μg/mL Dox, 50 hrs.
Where [6] appears, read: SupT1 PR/Gal4 clone, 1 μg/mL Dox.

Take `COC(=O)N[C@H](C(=O)N[C@@H](Cc1ccccc1)[C@@H](O)CN(Cc1ccc(-c2ccccn2)cc1)NC(=O)[C@@H](NC(=O)OC)C(C)(C)C)C(C)(C)C` [Atazanavir]: the “effect on PR inhibition (ranking among tested PIs)” value on HIV-1 PR [1] (setting [5]) was “strongest effect”. For the same molecule, the “concentration resulting in eGFP activation” value at HIV-1 PR [1] (setting [6]) stood at 1 nM.
As for `CC(C)CN(C[C@@H](O)[C@H](Cc1ccccc1)NC(=O)O[C@H]1CO[C@H]2OCC[C@H]21)S(=O)(=O)c1ccc(N)cc1` [Darunavir], the “effect on PR inhibition (ranking among tested PIs)” value on HIV-1 PR [1] (setting [5]) is recorded as “strongest effect”. Moreover, the “concentration resulting in eGFP activation” value on HIV-1 PR [1] (setting [6]) amounted to 1 nM.
Consider `C[C@H]1c2cccc(O)c2C(=O)C2=C(O)[C@]3(O)C(=O)C(C(N)=O)=C(O)[C@@H](N(C)C)[C@@H]3[C@@H](O)[C@@H]21` [Doxycycline], for which the “concentration at saturation of eGFP induction, TRE-Gal4 cells” value in data set [2] (clonal SupT1 TRE-Gal4, with or without 10 uM Indinavir, 32 hours) is “about 1,000 ng/mL”. For the same molecule, in data set [2] (clonal SupT1 TRE-PR/Gal4, pre-incubation with 10 μM Indinavir, 32 hours), the “concentration at maximal eGFP induction, TRE-PR/Gal4 cells” value is given as “around 500 ng/mL”. The “concentration at saturation of eGFP induction, TRE-PRm/Gal4 cells” value in data set [2] (clonal SupT1 TRE-PRm/Gal4, uninhibited and Indinavir-treated, 32 hours) is given as “around 250 ng/mL”. Also, the “concentration at which activation is saturated (FIG. 33)” value in data set [2] (clonal SupT1 cells pre-incubated with DMSO or 1 μM Indinavir) was “around 1 μg/mL”.
Consider `CC(C)(C)NC(=O)[C@@H]1CN(Cc2cccnc2)CCN1C[C@@H](O)C[C@@H](Cc1ccccc1)C(=O)N[C@H]1c2ccccc2C[C@H]1O` [Indinavir], for which the “eGFP expression (reporter activation by PR/Gal4)” value on HIV-1 PR [3] was “drastic induction”. Besides, at HIV-1 PR [1] (setting [5]), the “concentration inducing nearly full activation of reporter” value worked out at 5 µM and the “levels of reporter activation at low concentrations (ranking among tested PIs)” value is “lowest levels”. Besides, the “activation of PR/Gal4 clones (FIG. 31)” value on HIV-1 PR [1] (SupT1 PR/Gal4 clones, Dox 1 μg/mL, PI 1 μM, <1% background) is about 90%. The “time of initial induction of eGFP expression” value on HIV-1 PR [1] (clonal SupT1, 1 μg/mL Dox and 10 μM inhibitor) turned out to be 8 h. In addition, at HIV-1 PR [1] (clonal SupT1, 1 μg/mL Dox and 10 μM inhibitor, by 50 hours), the “eGFP expression (% of cells) at 50 hours” value is reported as about 100%. Besides, the eGFP expression result on HIV-1 PR [1] (non-clonal SupT1 cells with reporter, rtTA and pH-TRE-PR/Gal4, 1 μg/mL Dox and 10 μM inhibitor) is on record as “large induction”. Also, at HIV-1 PR [4], the “time at which activation of clones reaches max (FIG. 34)” value is “around 48 hrs”.
On to `Cc1cccc(C)c1OCC(=O)N[C@@H](Cc1ccccc1)[C@@H](O)C[C@H](Cc1ccccc1)NC(=O)[C@H](C(C)C)N1CCCNC1=O` [Lopinavir], for which the “concentration resulting in significant cell death, with decline in number of eGFP positive cells” value in the data set with SupT1 cells is “around 1 uM”.
Same read-out and setting: in the case of `Cc1c(O)cccc1C(=O)N[C@@H](CSc1ccccc1)[C@H](O)CN1C[C@H]2CCCC[C@H]2C[C@H]1C(=O)NC(C)(C)C` [Nelfinavir] it was “around 1 uM”.
On to `CC(C)(C)NC(=O)[C@@H]1C[C@@H]2CCCC[C@@H]2CN1C[C@@H](O)[C@H](Cc1ccccc1)NC(=O)[C@H](CC(N)=O)NC(=O)c1ccc2ccccc2n1` [Saquinavir], for which the “concentration with significant cell death / decline in number of eGFP positive cells” value in the data set with SupT1 cells (SupT1 PR/Gal4 clone, 50 hrs, maximal level tested) is 20 µM.
